Measurements: US20200239530A1, “COMPOUNDS AND METHODS OF MODULATING PROTEIN DEGRADATION” (Vividion Therapeutics, Inc., priority 2017, published 2020)
Where two headings read alike, the source gives them in different places. One block for each molecule: values may come before it.

Legend:
Assay type in all cases: binding
[1] = molecular target: T1, cysteine residue illustrated in Table 1A or Table 2A (Homo sapiens, UniProt O75155); experiment: Competitive cysteine profiling of cell lysate with desthiobiotin iodoacetamide probe (96-well sample prep); details: UniProt O75155; 100 uM
T1 construct: Cells were resuspended in cold PBS on ice and sonicated with a probe sonicator to achieve lysis; endogenous in cells
In short: (§1)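 Competitive profiling: compound and lysate (5 mg/ml protein) incubated 1 h at 25 °C before a 1 h, 25 °C desthiobiotin iodoacetamide probe step. Proteins were acetone-precipitated, reduced, alkylated and trypsinized; streptavidin-captured labelled peptides were eluted for MS analysis.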

[2] = tested on: cysteine residue illustrated in Table 1A or Table 2A; experiment: as above; details: for KB02_100 uM_percent_inhibition: KB02 at 100 uM; for KB03_100 uM_percent_inhibition: KB03 at 100 uM
In short: as §1

Q9H0C5 = molecular target: T2, Q9H0C5 (Homo sapiens, UniProt Q9H0C5); experiment: Competitive cysteine profiling, probe competition (Table 2B)
T2 construct: 200 μL of lysate containing 5 mg/ml proteome was treated with 2 μL of 100× compound stock; endogenous in cells
T2 sequence (Q9H0C5 1-482): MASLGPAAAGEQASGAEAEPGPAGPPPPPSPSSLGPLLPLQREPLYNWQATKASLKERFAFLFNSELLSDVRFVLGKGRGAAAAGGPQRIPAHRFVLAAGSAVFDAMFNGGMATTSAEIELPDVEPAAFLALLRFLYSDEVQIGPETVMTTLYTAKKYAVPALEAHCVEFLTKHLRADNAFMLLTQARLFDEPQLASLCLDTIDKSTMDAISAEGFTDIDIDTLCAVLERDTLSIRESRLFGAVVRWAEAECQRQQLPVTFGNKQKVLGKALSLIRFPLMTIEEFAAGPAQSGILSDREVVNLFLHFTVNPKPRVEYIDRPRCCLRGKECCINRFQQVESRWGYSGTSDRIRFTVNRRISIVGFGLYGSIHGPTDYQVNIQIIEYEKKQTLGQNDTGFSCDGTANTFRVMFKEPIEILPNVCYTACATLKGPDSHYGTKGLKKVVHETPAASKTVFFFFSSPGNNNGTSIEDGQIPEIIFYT
From the text: (§2) The following 96-well sample prep protocol was used for sample preparation.

Q9H1A4 = molecular target: T3, Q9H1A4 (Homo sapiens, UniProt Q9H1A4); experiment: as above
T3 construct: Cells were resuspended in cold PBS on ice and sonicated with a probe sonicator to achieve lysis; endogenous in cells
From the text: as §2

[3] = molecular target: T4, cysteine residue illustrated in Table 1A or Table 2A (Homo sapiens, UniProt O94941); experiment: Competitive cysteine profiling of cell lysate with desthiobiotin iodoacetamide probe (96-well sample prep); details: UniProt O94941
T4 construct: Cells were resuspended in cold PBS on ice and sonicated with a probe sonicator to achieve lysis; endogenous in cells
In short: as §1

[4] = molecular target: T5, cysteine residue illustrated in Table 1A or Table 2A (Homo sapiens, UniProt Q5T6F0); experiment: as above; details: UniProt Q5T6F0; 100 uM
T5 construct: Cells were resuspended in cold PBS on ice and sonicated with a probe sonicator to achieve lysis; endogenous in cells
In short: as §1

[5] = molecular target: T6, cysteine residue illustrated in Table 1A or Table 2A (Homo sapiens, UniProt Q8NHY2); experiment: as above; details: UniProt Q8NHY2; 100 uM
T6 construct: Cells were resuspended in cold PBS on ice and sonicated with a probe sonicator to achieve lysis; endogenous in cells
In short: as §1

[6] = molecular target: T7, cysteine residue illustrated in Table 1A or Table 2A (Homo sapiens, UniProt Q96GG9); experiment: as above; details: UniProt Q96GG9; 100 uM
T7 construct: Cells were resuspended in cold PBS on ice and sonicated with a probe sonicator to achieve lysis; endogenous in cells
In short: as §1

[7] = molecular target: T8, cysteine residue illustrated in Table 1A or Table 2A (Homo sapiens, UniProt Q9P000); experiment: as above; details: UniProt Q9P000; 100 uM
T8 construct: Cells were resuspended in cold PBS on ice and sonicated with a probe sonicator to achieve lysis; endogenous in cells
In short: as §1

SMILES: COc1ccc2c(c1)CCCN2C(=O)CCl [KB02]
KB02_100 uM_percent_inhibition [1]: 24%
KB02_100 uM_percent_inhibition ([2]; c0 = UniProt of target protein, one grid row per cysteine site): 24%
KB02_100 uM_percent_inhibition ([2]; target protein = UniProt accession, one row per cysteine site): 24%
KB02_100 uM_percent_inhibition ([2]; target protein = UniProt id in c0 of the row (one row per cysteine site)): 24%
inhibition at 100 µM (Q9H0C5; 100 uM, read-out: KB02_100 uM_percent_inhibition): 9%
KB02_100 uM_percent_inhibition (Q9H1A4; 100 uM): 21%
inhibition at 100 µM (Q9H1A4; read-out: KB02_100 uM_percent_inhibition): 24%

KB05_100 uM_percent_inhibition ([3]; KB05 100 uM): 40%
KB05_100 uM_percent_inhibition [4]: 31%
KB05_100 uM_percent_inhibition [5]: 43%
KB05_100 uM_percent_inhibition [6]: 10%
KB05_100 uM_percent_inhibition [7]: 19%
KB05_500 uM_percent_inhibition (Q9H0C5; 500 uM): 36%
inhibition at 500 µM (Q9H0C5; 500 uM, read-out: KB05_500 uM_percent_inhibition): 56%
inhibition at 100 µM (Q9H1A4; read-out: KB05_100 uM_percent_inhibition): 29%
SMILES: C=CC(=O)N(c1ccccc1)c1ccc(Br)cc1 [KB05]

SMILES: O=C(CCl)Nc1cc(C(F)(F)F)cc(C(F)(F)F)c1 [KBO3]
KB03_100 uM_percent_inhibition [1]: 31%
KB03_100 uM_percent_inhibition ([3]; KB03 100 uM): 63%
KB03_100 uM_percent_inhibition [4]: 11%
KB03_100 uM_percent_inhibition [5]: 27%
KB03_100 uM_percent_inhibition [6]: 26%
KB03_100 uM_percent_inhibition [7]: 30%
KB03_100 uM_percent_inhibition ([2]; target protein = UniProt accession, one row per cysteine site, UniProt Q9P0J7): 90%
KB03_100 uM_percent_inhibition ([2]; target protein = UniProt accession, one row per cysteine site, UniProt Q08380): 69%
